In the test the test system is phosphorylation of Serine 473 in Akt in HCT 116 cells. As to the kind of experiment: Cell-based phospho-Akt Ser473 assay (HCT 116 cell). To be noted: Homo sapiens; pAkt Ser473, HCT 116 cells, compound 2 hours, IGF-1 stimulation; average if run more than once; read-out: HCT116 Cell IC50. The text has this: Cell-Based Phospho-Akt Ser473Assay (HCT 116 Cell)
This assay determines the ability of a compound to inhibit the phosphorylation of Serine 473 in Akt using a MSD based sandwich immunoassay (Meso Scale Detection, Meso Scale Discovery (MSD), Gaithersburg, Md.). HCT 116 human colon carcinoma cell lines can be grown in McCoy's 5A growth medium (GIBCO, Carlsbad, Calif.) containing 10% FBS (GIBCO, Carlsbad, Calif.) and X1 Penicillin-streptomycin-glutamine (GIBCO, Carlsbad, Calif.). Prior to the assay, cells can be detached from the culture flask with trypsin, and re-suspended in complete media to give a final concentration of 1.6×10^5 cells per mL. Aliquots (100 μl) of the HCT116 cell suspension can be seeded into each well of a 96 well tissue culture plate to give a final density of 16,000 cells per well. Cells can then be incubated overnight at 37° C.
The following day the cells can be treated with serially diluted test compounds and incubated for 2 hours at 37° C. The culture media on the HCT 116 cells can be replaced with 189 μL McCoys media, supplemented with 0.1% BSA (ICN Biomedicals, Inc., Costa Mesa, Calif.). Compounds can be prepared as either 10 mM or 0.5 mM stock solutions in DMSO, and serially diluted 3 fold in a 10-point dose-response curve to give final concentrations that are 200-fold greater than the desired final test concentration. […]
25 μL Cell lysate can then be transferred to pre-blocked MSD assay plates pre-coated with a capture antibody specific for Akt, and the plates can be incubated for 2 hours at room temperature. […] An aliquot of 150 μL of diluted MSD read buffer can then be applied to each well, and the electrochemiluminescent signal can be measured using a MSD SECTOR™ plate reader (Meso Scale Discovery, Gaithersburg, Md.). This instrument measures the intensity of emitted light to determine a quantitative measure of phosphorylated Akt in each well. The dose-response data obtained with each compound can be analyzed and the IC50 inhibition of Akt phosphorylation at Ser473 can be calculated. […]

The structures appear in SMILES notation. pIC50: −log10 of the molar value.

With `O=S(=O)(Nc1cc(-c2cnc3ccccn23)cnc1Cl)c1ccc(F)cc1` [Example 3, N-(2-Chloro-5-imidazo[1,2-a]pyridin-3-yl-3-pyridinyl)-4-fluorobenzenesulfonamide], the pIC50 is 6.45.

Take `Cc1ccn2c(-c3cnc(Cl)c(NS(=O)(=O)c4ccc(F)cc4)c3)cnc2c1` [Example 4, N-(2-Chloro-5-(7-methylimidazo[1,2-a]pyridin-3-yl)-3-pyridinyl)-4-fluorobenzenesulfonamide]: the pIC50 was 6.74.

On to `O=S(=O)(Nc1cc(-c2cnc3ccc(Cl)nn23)cnc1Cl)c1ccc(F)cc1` [Example 25, N-(2-Chloro-5-(6-chloroimidazo[1,2-b]pyridazin-3-yl)pyridin-3-yl)-4-fluorobenzenesulfonamide], for which the pIC50 was 6.25.
